Data on 26 compounds can be found in patent publication US12679801B2, “Amino lipid and preparation method and application thereof” (Shenzhen MagicRNA Biotechnology Co., Ltd., priority 2022, dated 2026).

The test system of this assay is BMDC primary cells. As to the kind of experiment: Luc mRNA LNP transfection on BMDC primary cells (Embodiment 21, Table 9). The format is cell-based, C57BL/6 mice. Conditions: 16 h, ONE-Glo Luciferase. The procedure: Preparation method: the same as that in Embodiment 17.
Animal preparation: 6-week-old female C57BL/6 mice with the body weight about 20 g were selected. A feeding environment was an SPF stage feeding room. Animal tests were strictly performed according to the guide of the national health institute and the animal ethics requirements.
Cell acquisition: C57BL/6 mice were killed through cervical dislocation, and were soaked for 5 min in 75% ethyl alcohol. Dissection was performed to obtain thigh and calf tibiae of the mice. Attached muscles were removed to expose sclerotin. Then, bone marrow in tibiae was blown out by using a 1 mL injector sucked with PBS. After the bone marrow was blown away, impurities were filtered away by a 50 μm filter screen. A red blood cell lysis buffer (3-4 mL) was added into an obtained filtrate. Then, after placement for 5 min, 800 g centrifugation was performed for 5 min to remove a supernatant. The obtained cells were placed into a 1640 culture medium (containing 10% fetal calf serum, 20 ng/mL GMCSF and 10 ng/mL IL4) to be resuspended, and were inoculated into a 6-well plate at an inoculation density of 100000 cells/ml culture medium. The materials were placed into a 37° C. cell incubator containing 5% CO2. Half liquid change was performed once every 2 days. Suspended cells and loose wall attached cells were collected on the seventh day, and were inoculated to a 96-well all-white ELISA plate at the inoculation density of 20000 cells per well, and the volume of a culture medium was 100 μL.
Cell transfection: lipid nanoparticles coated with luciferase mRNA were added into a 96-well white ELISA plate laid with primary cells. The adding volume of the mRNA lipid nanoparticles in each well was controlled to be 10 μL. Then, the materials were put into a 37° C. incubator containing 5% CO2 for 16 h.
Transfection efficiency detection: 20 μL of a substrate ONE-Glo™ Luciferase was added into each well of a 96-well all-white ELISA plate, and after 1 min, detection was performed by a multifunctional or multimode microplate reader.

`CCCCCCCCCCCCC(COC(=O)C(CCCCCCCC)CCCCCCCC)OC(=O)CCCCN(C)C` (centres unmarked) [E9C115A11] came in with a Luciferase luminescence intensity of 1.9E+05.

Compound `CCCCCCCCC(COC(=O)C(CCCCCCCC)CCCCCCCC)OC(=O)CCCN(C)C` (centres unmarked) [E5C115A9] displayed a Luciferase luminescence intensity of 2.7E+04.

The compound `CCCCCCCCCCC(COC(=O)C(CCCCCCC)CCCCCCC)OC(=O)CCCN(C)C` (centres unmarked) [E7C114A9, 2-((4-(Dimethylamino)Butanoyl)Oxy) Dodecyl 2-Heptylnonanoate] gave a Luciferase luminescence intensity of 6.6E+04.

The compound `CCCCCCCCCCC(COC(=O)CC(CCCCC)CCCCCCCCC)OC(=O)CCCN(C)C` (centres unmarked) [E7C123A9] had a Luciferase luminescence intensity of 4.3E+04.

The compound `CCCCCCCCCCCCCC(COC(=O)C(CCCCCCCC)CCCCCCCC)OC(=O)CCCN(C)C` (centres unmarked) [E10C115A9] registered a Luciferase luminescence intensity of 4.4E+04.

`CCCCCCCCCCCCCC(COC(=O)CC(CCCCCCC)CCCCCCC)OC(=O)CCCCN(C)C` (centres unmarked) [E10C128A11]: the Luciferase luminescence intensity worked out at 4.7E+04.

In turn, `CCCCCCCCCCCCCCC(COC(=O)CC(CCCCCCC)CCCCCCC)OC(=O)CCCN(C)C` (centres unmarked) [E11C128A9] returned a Luciferase luminescence intensity of 3.9E+04.

`CCCCCCCCCCCCCCC(COC(=O)C(CCCCCCC)CCCCCCC)OC(=O)CCCCN(C)C` (centres unmarked) [E11C114A11] gave a Luciferase luminescence intensity of 6.5E+04.

As to `CCCCCCCCCCCCCC(COC(=O)C(CCCC)CCCCCCCCCCCC)OC(=O)CCCN(C)C` (centres unmarked) [E10C106A9], the Luciferase luminescence intensity is 4.2E+04.

Turning to `CCCCCCCCCCCCCCC(COC(=O)CC(CCCCCC)CCCCCCCC)OC(=O)CCCN(C)C` (centres unmarked) [E11C126A9], the Luciferase luminescence intensity turned out to be 3.6E+04.

Turning to `CCCCCCCCCCCCC(COC(=O)C(CCCC)CCCCCCCCCC)OC(=O)CCCN(C)C` (centres unmarked) [E9C104A9], the Luciferase luminescence intensity came out at 3.6E+04.

Consider `CCCCCCCCC(COC(=O)CC(CCCCCCC)CCCCCCC)OC(=O)CCCN(C)C` (centres unmarked) [E5C128A9], for which the Luciferase luminescence intensity was determined as 3.9E+04.

Consider `CCCCCCCCCCC(CCCC)C(=O)OCC(CCCCCCCC)OC(=O)CCCN(C)C` (centres unmarked) [E5C104A9], for which the Luciferase luminescence intensity is 5.2E+04.

As to `CCCCCCCCCCCC(COC(=O)C(CCCCCCCCC)CCCCCCCCC)OC(=O)CCCCN(C)C` (centres unmarked) [E8C116A11], the Luciferase luminescence intensity came out at 5.0E+04.

The compound `CCCCCCCCCCC(COC(=O)CC(CCCCCCC)CCCCCCC)OC(=O)CCCCN(C)C` (centres unmarked) [E7C128A11] had a Luciferase luminescence intensity of 3.6E+04.

Take `CCCCCCCCCC(CCCCC)C(=O)OCC(CCCCCCCC)OC(=O)CCCN(C)C` (centres unmarked) [E5C109A9]: the Luciferase luminescence intensity was 3.9E+03.

Consider `CCCCCCCCC(COC(=O)C(CCCCCCC)CCCCCCC)OC(=O)CCCN(C)C` (centres unmarked) [E5C114A9], for which the Luciferase luminescence intensity is given as 8.6E+03.

Consider `CCCCCCCCCCC(COC(=O)C(CCCCCCCC)CCCCCCCC)OC(=O)CCCN(C)C` (centres unmarked) [E7C115A9], for which the Luciferase luminescence intensity is 5.6E+04.

Regarding `CCCCCCCCCCCCCC(COC(=O)C(CCCCC)CCCCCCCCCCC)OC(=O)CCCN(C)C` (centres unmarked) [E10C111A9], the Luciferase luminescence intensity was determined as 3.7E+04.

As to `CCCCCCCCCCCCC(COC(=O)CC(CCCCCCC)CCCCCCC)OC(=O)CCCN(C)C` (centres unmarked) [E9C128A9], the Luciferase luminescence intensity is on record as 3.7E+04.

`CCCCCCCCCCC(COC(=O)CC(CCCCCCC)CCCCCCC)OC(=O)CCCN(C)C` (centres unmarked) [E7C128A9] yielded a Luciferase luminescence intensity of 3.5E+04.

For `CCCCCCCCCCC(COC(=O)C(CCCC)CCCCCCCCCC)OC(=O)CCCN(C)C` (centres unmarked) [E7C104A9], the Luciferase luminescence intensity amounted to 3.9E+04.

Turning to `CCCCCCCCCCCCC(CCCC)C(=O)OCC(CCCCCCCCCC)OC(=O)CCCN(C)C` (centres unmarked) [E7C106A9], the Luciferase luminescence intensity was determined as 3.9E+04.

Take `CCCCCCCCCCCCCC(COC(=O)C(CCCCCCC)CCCCCCC)OC(=O)CCCN(C)C` (centres unmarked) [E10C114A9]: the Luciferase luminescence intensity came to 4.3E+04.

As to `CCCCCCCCCCCCCCC(COC(=O)C(CCCCCCCC)CCCCCCCC)OC(=O)CCCN(C)C` (centres unmarked) [E11C115A9], the Luciferase luminescence intensity is 4.9E+04.

Take `CCCCCCCCCCC(CCCC)CC(=O)OCC(CCCCCCCC)OC(=O)CCCN(C)C` (centres unmarked) [E5C119A9]: the Luciferase luminescence intensity was 4.1E+04.
